Series [1] is described as follows: Fluorescence emission spectra of probes in glycerol and methanol (viscosity response). The series is classed as physicochemical. As to conditions: maximum excitation wavelength of each probe; for Fluorescence ratio in glycerol methanol: 1×10^−5 M; for Emission wavelength: medium not given. The source says: Respectively dissolve Probe 1-32 and Reference Probes BG-CCVJ and BG-Gly-CCVJ in dimethyl sulfoxide so as to prepare a mother liquid with a concentration of 1×10^−2M; add the mother liquid to glycerol and methanol respectively and mix them well to prepare a solution with a concentration of 1×10^−5 M. Based on different probes, the fluorescence emission spectrum of each probe are detected under the same conditions with maximum excitation wavelength of each probe.
The probes are sensitive to the change of viscosity and have viscosity response.

Series [2] is described as follows: Fluorescence of free probe before reaction with the protein tag. The series is classed as physicochemical. As to the method:
(§1) Mix the probe with corresponding protein tag to obtain the mixed sample, wherein the final concentration of probe in the mixed sample is 5 μM, and the final concentration of protein tags is 10 μM; hatch the mixed sample at 37° C. for 1 h, and detect its fluorescence intensity change by using the fluorescence spectrophotometer.
(§2) According to the free probe quantum yield shown in Table 1, the fluorescence of the probes of and reference probes are extremely low before the reaction with the protein tag, and is close to the background fluorescence level of PBS buffer solution. […] However, according to the quantum yield of the binding protein tag, the fluorescence signal enhancement can be detected in the corresponding excitation emission channel after the probe reacts with the protein tag with hundreds to one thousand fold fluorescence activation times and very high brightness; the reference probes also can activate fluorescence, but the fluorescence quantum yield and brightness after activation are quite low.

A further series has as its system SNAP protein tag. Kind of series: Fluorescence activation after mixing probe with corresponding protein tag (SNAP). The series is classed as biochemical. The note with it: probe 5 μM, protein tag 10 μM, 37° C., 1 h. The protocol:
as §1, §2

The next series concerns CLIP protein tag. Description: Fluorescence activation after mixing probe with corresponding protein tag (CLIP). The note with it: probe 5 μM, protein tag 10 μM, 37° C., 1 h. The series is classed as biochemical. As to the method:
as §1, §2

Some results are limits rather than exact numbers.

With `CN(CCOC(=O)NCc1ccc(COc2nc(N)nc3[nH]cnc23)cc1)c1ccc2nc(/C=C(\C#N)C(=O)OC(C)(C)C)ccc2c1` [Probe 1], in series [1], the “Fluorescence ratio in glycerol methanol” value stood at 562 and the Emission wavelength worked out at 550 nm. Also, the “Quantum yield of free probe” value in series [2] is reported as under 0.001. In the series on SNAP protein tag, the Fluorescence activation multiple was found to be 490 and the “Quantum yield of binding protein tags” value was determined as 0.41.
On to `CN(CCOC(=O)NCc1ccc(COc2nc(N)nc3[nH]cnc23)cc1)c1ccc2nc(/C=C(\C#N)c3nc4ccccc4o3)ccc2c1` [Probe 2], for which, in series [1], the “Fluorescence ratio in glycerol methanol” value is 790 and the Emission wavelength amounted to 630 nm. Besides, the “Quantum yield of free probe” value in series [2] is given as under 0.001. For the same compound, in the series on SNAP protein tag, the Fluorescence activation multiple stood at 556 and the “Quantum yield of binding protein tags” value is listed as 0.44.
Turning to `CN(CCOC(=O)NCc1ccc(COc2nccc(N)n2)cc1)c1ccc2nc(/C=C(\C#N)C(=O)OC(C)(C)C)ccc2c1` [Probe 3], in series [1], the “Fluorescence ratio in glycerol methanol” value was 621 and the Emission wavelength came out at 550 nm. Also, in series [2], the “Quantum yield of free probe” value is under 0.001. Also, in the series with CLIP protein tag, the Fluorescence activation multiple is reported as 473 and the “Quantum yield of binding protein tags” value was determined as 0.41.
Regarding `CN(CCOC(=O)NCc1ccc(COc2cc(Cl)nc(N)n2)cc1)c1ccc2nc(/C=C(\C#N)C(=O)OC(C)(C)C)ccc2c1` [Probe 4], in series [1], the “Fluorescence ratio in glycerol methanol” value is listed as 601 and the Emission wavelength is recorded as 550 nm. In series [2], the “Quantum yield of free probe” value is under 0.001. In the series on SNAP protein tag, the Fluorescence activation multiple was determined as 567 and the “Quantum yield of binding protein tags” value is reported as 0.39.
Consider `CN(CCOC(=O)NCc1ccc(COc2nc(N)nc3[nH]cnc23)cc1)c1ccc(-c2ccc(/C=C(\C#N)C(=O)OC(C)(C)C)o2)cc1` [Probe 5], for which, in series [1], the “Fluorescence ratio in glycerol methanol” value came to 821 and the Emission wavelength was found to be 615 nm. Besides, in series [2], the “Quantum yield of free probe” value was under 0.001. For the same compound, in the series with SNAP protein tag, the Fluorescence activation multiple is recorded as 669 and the “Quantum yield of binding protein tags” value is 0.44.
In the case of `COCCNC(=O)/C(C#N)=C/c1ccc(-c2ccc(N(C)CCOC(=O)NCc3ccc(COc4nc(N)nc5[nH]cnc45)cc3)cc2)o1` [Probe 6], in series [1], the “Fluorescence ratio in glycerol methanol” value is on record as 851 and the Emission wavelength came out at 627 nm. Besides, in series [2], the “Quantum yield of free probe” value was under 0.001. Besides, in the series with SNAP protein tag, the Fluorescence activation multiple was found to be 745 and the “Quantum yield of binding protein tags” value was 0.41.
As for `CN(CCOC(=O)NCc1ccc(COc2nc(N)nc3[nH]cnc23)cc1)c1ccc(-c2ccc(/C=C(\C#N)c3nc4ccccc4o3)o2)cc1` [Probe 7], in series [1], the “Fluorescence ratio in glycerol methanol” value is recorded as 814 and the Emission wavelength is recorded as 666 nm. The “Quantum yield of free probe” value in series [2] is reported as under 0.001. In the series on SNAP protein tag, the Fluorescence activation multiple is 701 and the “Quantum yield of binding protein tags” value amounted to 0.45.
`CN(CCOC(=O)NCc1ccc(COc2nccc(N)n2)cc1)c1ccc(-c2ccc(/C=C(\C#N)C(=O)OC(C)(C)C)o2)cc1` [Probe 8]: in series [1], the “Fluorescence ratio in glycerol methanol” value was 574 and the Emission wavelength worked out at 630 nm. For the same compound, the “Quantum yield of free probe” value in series [2] is listed as under 0.001. In the series on CLIP protein tag, the Fluorescence activation multiple is recorded as 555 and the “Quantum yield of binding protein tags” value came to 0.40.
Take `CN(CCOC(=O)NCc1ccc(COc2nc(N)nc3[nH]cnc23)cc1)c1ccc(-c2ccc(/C=C(\C#N)C(=O)OC(C)(C)C)o2)o1` [Probe 13]: in series [1], the “Fluorescence ratio in glycerol methanol” value is on record as 311 and the Emission wavelength stood at 650 nm. Besides, in series [2], the “Quantum yield of free probe” value is listed as 0.0012. For the same compound, in the series on SNAP protein tag, the Fluorescence activation multiple was found to be 359 and the “Quantum yield of binding protein tags” value stood at 0.37.
Regarding `CN(CCOC(=O)NCc1ccc(COc2nc(N)nc3[nH]cnc23)cc1)c1ccc(-c2ccc(/C=C(\C#N)c3nc4ccccc4s3)o2)o1` [Probe 14], in series [1], the “Fluorescence ratio in glycerol methanol” value is 402 and the Emission wavelength turned out to be 725 nm. For the same compound, the “Quantum yield of free probe” value in series [2] was found to be 0.001. For the same compound, in the series on SNAP protein tag, the Fluorescence activation multiple was 498 and the “Quantum yield of binding protein tags” value worked out at 0.35.
With `CN(CCOC(=O)NCc1ccc(COc2nccc(N)n2)cc1)c1ccc(-c2ccc(/C=C(\C#N)C(=O)OC(C)(C)C)o2)o1` [Probe 15], in series [1], the “Fluorescence ratio in glycerol methanol” value is reported as 301 and the Emission wavelength stood at 651 nm. In series [2], the “Quantum yield of free probe” value was found to be 0.0012. Moreover, in the series with CLIP protein tag, the Fluorescence activation multiple was determined as 265 and the “Quantum yield of binding protein tags” value stood at 0.35.
Regarding `COCCNC(=O)/C(C#N)=C/c1cc2c(s1)-c1ccc(N(C)CCOC(=O)NCc3ccc(COc4nc(N)nc5[nH]cnc45)cc3)cc1C2(C)C` [Probe 19], in series [1], the “Fluorescence ratio in glycerol methanol” value was 996 and the Emission wavelength was determined as 640 nm. Also, the “Quantum yield of free probe” value in series [2] is given as under 0.001. Also, in the series with SNAP protein tag, the Fluorescence activation multiple amounted to 670 and the “Quantum yield of binding protein tags” value was determined as 0.51.
With `COCCNC(=S)/C(C#N)=C/c1cc2c(s1)-c1ccc(N(C)CCOC(=O)NCc3ccc(COc4nc(N)nc5[nH]cnc45)cc3)cc1C2(C)C` [Probe 20], in series [1], the “Fluorescence ratio in glycerol methanol” value came to 1123 and the Emission wavelength is recorded as 665 nm. Further, the “Quantum yield of free probe” value in series [2] is under 0.001. Further, in the series with SNAP protein tag, the Fluorescence activation multiple is listed as 910 and the “Quantum yield of binding protein tags” value was 0.44.
Turning to `COC(=S)/C(C#N)=C/c1cc2c(s1)-c1ccc(N(C)CCOC(=O)NCc3ccc(COc4nc(N)nc5[nH]cnc45)cc3)cc1C2(C)C` [Probe 21], in series [1], the “Fluorescence ratio in glycerol methanol” value is 542 and the Emission wavelength came to 680 nm. Further, the “Quantum yield of free probe” value in series [2] is under 0.001. Besides, in the series with SNAP protein tag, the Fluorescence activation multiple was found to be 451 and the “Quantum yield of binding protein tags” value came to 0.39.
On to `CN(CCOC(=O)NCc1ccc(COc2nc(N)nc3[nH]cnc23)cc1)c1ccc2c(c1)C(C)(C)c1cc(/C=C(\C#N)C(=O)O)sc1-2` [Probe 23], for which, in series [1], the “Fluorescence ratio in glycerol methanol” value was 512 and the Emission wavelength worked out at 643 nm. Further, the “Quantum yield of free probe” value in series [2] is given as under 0.001. In the series with SNAP protein tag, the Fluorescence activation multiple came out at 433 and the “Quantum yield of binding protein tags” value was 0.33.
For `CN(CCOC(=O)NCc1ccc(COc2cc(Cl)nc(N)n2)cc1)c1ccc2c(c1)C(C)(C)c1cc(/C=C(\C#N)C(=O)OC(C)(C)C)sc1-2` [Probe 27], in that order: 493, 645 nm, under 0.001, 557 and 0.41.
For the compound `CN(CCOC(=O)NCc1ccc(COc2nc(N)nc3[nH]cnc23)cc1)c1ccc2c(c1)C(C)(C)c1cc(/C=C(\C#N)C(=O)OC(C)(C)C)oc1-2` [Probe 28], in series [1], the “Fluorescence ratio in glycerol methanol” value worked out at 1274 and the Emission wavelength worked out at 651 nm. In series [2], the “Quantum yield of free probe” value is given as under 0.001. In the series on SNAP protein tag, the Fluorescence activation multiple came out at 857 and the “Quantum yield of binding protein tags” value amounted to 0.67.
Turning to `CN(CCOC(=O)NCc1ccc(COc2nc(N)nc3[nH]cnc23)cc1)c1ccc2c(c1)C(C)(C)C(/C=C(\C#N)C(=O)OC(C)(C)C)=N2` [Probe 30], in series [1], the “Fluorescence ratio in glycerol methanol” value turned out to be 412 and the Emission wavelength stood at 675 nm. Besides, the “Quantum yield of free probe” value in series [2] is on record as under 0.001. Besides, in the series on SNAP protein tag, the Fluorescence activation multiple turned out to be 503 and the “Quantum yield of binding protein tags” value came to 0.41.
In the case of `CN(CCOC(=O)NCc1ccc(COc2nc(N)nc3[nH]cnc23)cc1)c1ccc2c(c1)C(C)(C)C(/C=C(\C#N)c1nc3ccccc3s1)=N2` [Probe 31], in series [1], the “Fluorescence ratio in glycerol methanol” value was 573 and the Emission wavelength came out at 703 nm. Besides, the “Quantum yield of free probe” value in series [2] is given as under 0.001. Also, in the series with SNAP protein tag, the Fluorescence activation multiple was 445 and the “Quantum yield of binding protein tags” value is reported as 0.47.
The like results for `CN(CCOC(=O)NCc1ccc(COc2nccc(N)n2)cc1)c1ccc2c(c1)C(C)(C)C(/C=C(\C#N)C(=O)OC(C)(C)C)=N2` [Probe 32] were, in that order, 553, 675 nm, under 0.001, 421 and 0.41.
Take `N#C/C(=C\c1cc2c3c(c1)CCCN3CCC2)C(=O)NCc1ccc(COc2nc(N)nc3[nH]cnc23)cc1` [Reference probe BG-CCVJ, reference compound]: in series [1], the “Fluorescence ratio in glycerol methanol” value is 260 and the Emission wavelength is on record as 501 nm. In series [2], the “Quantum yield of free probe” value is recorded as under 0.001. In addition, in the series with SNAP protein tag, the Fluorescence activation multiple came to 170 and the “Quantum yield of binding protein tags” value turned out to be 0.02.
`N#C/C(=C\c1cc2c3c(c1)CCCN3CCC2)C(=O)NCC(=O)NCc1ccc(COc2nc(N)nc3[nH]cnc23)cc1` [Reference probe BG-Gly-CCVJ, reference compound]: in series [1], the “Fluorescence ratio in glycerol methanol” value was 260. Further, the “Quantum yield of free probe” value in series [2] is given as under 0.001. This compound also gave a Fluorescence activation multiple in the series on SNAP protein tag of 60.

The record behind these values is patent US12613246B2, “Fluorescent probe and protein labeling method” (SHANGHAI GLORY CAPITAL MANAGEMENT LTD., priority 2018, dated 2026).
